Data as given in patent US8691865B2 (AbbVie Inc., priority 2008, dated 2014).
Where two headings read alike, the source gives them in different places.

Molecular target: human Cav2.2 (Homo sapiens, UniProt Q00975)
Assay: Assessment of calcium channel activity using FLIPR (Ca2+ influx in IMR32 cells)
Type: cell-based
Procedure, shortened: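 Human neuroblastoma IMR32 cells were seeded at 1−1.2×10^5 cells/well and cultured 48 h at 37 °C before FLIPR calcium influx measurement. Percent inhibition at each concentration was calculated against the no-inhibitor signal, and IC50 came from sigmoidal dose-response fits.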

[1] = read-out: IC50 (μM) or percent inhibition (* indicates 3 minute incubation, otherwise 60 minute), IC50, 60 minute pre-incubation with compound, IMR32 cells, 80 mM KCl depolarization

human Cav2.2, sequence (Q00975 whole entry): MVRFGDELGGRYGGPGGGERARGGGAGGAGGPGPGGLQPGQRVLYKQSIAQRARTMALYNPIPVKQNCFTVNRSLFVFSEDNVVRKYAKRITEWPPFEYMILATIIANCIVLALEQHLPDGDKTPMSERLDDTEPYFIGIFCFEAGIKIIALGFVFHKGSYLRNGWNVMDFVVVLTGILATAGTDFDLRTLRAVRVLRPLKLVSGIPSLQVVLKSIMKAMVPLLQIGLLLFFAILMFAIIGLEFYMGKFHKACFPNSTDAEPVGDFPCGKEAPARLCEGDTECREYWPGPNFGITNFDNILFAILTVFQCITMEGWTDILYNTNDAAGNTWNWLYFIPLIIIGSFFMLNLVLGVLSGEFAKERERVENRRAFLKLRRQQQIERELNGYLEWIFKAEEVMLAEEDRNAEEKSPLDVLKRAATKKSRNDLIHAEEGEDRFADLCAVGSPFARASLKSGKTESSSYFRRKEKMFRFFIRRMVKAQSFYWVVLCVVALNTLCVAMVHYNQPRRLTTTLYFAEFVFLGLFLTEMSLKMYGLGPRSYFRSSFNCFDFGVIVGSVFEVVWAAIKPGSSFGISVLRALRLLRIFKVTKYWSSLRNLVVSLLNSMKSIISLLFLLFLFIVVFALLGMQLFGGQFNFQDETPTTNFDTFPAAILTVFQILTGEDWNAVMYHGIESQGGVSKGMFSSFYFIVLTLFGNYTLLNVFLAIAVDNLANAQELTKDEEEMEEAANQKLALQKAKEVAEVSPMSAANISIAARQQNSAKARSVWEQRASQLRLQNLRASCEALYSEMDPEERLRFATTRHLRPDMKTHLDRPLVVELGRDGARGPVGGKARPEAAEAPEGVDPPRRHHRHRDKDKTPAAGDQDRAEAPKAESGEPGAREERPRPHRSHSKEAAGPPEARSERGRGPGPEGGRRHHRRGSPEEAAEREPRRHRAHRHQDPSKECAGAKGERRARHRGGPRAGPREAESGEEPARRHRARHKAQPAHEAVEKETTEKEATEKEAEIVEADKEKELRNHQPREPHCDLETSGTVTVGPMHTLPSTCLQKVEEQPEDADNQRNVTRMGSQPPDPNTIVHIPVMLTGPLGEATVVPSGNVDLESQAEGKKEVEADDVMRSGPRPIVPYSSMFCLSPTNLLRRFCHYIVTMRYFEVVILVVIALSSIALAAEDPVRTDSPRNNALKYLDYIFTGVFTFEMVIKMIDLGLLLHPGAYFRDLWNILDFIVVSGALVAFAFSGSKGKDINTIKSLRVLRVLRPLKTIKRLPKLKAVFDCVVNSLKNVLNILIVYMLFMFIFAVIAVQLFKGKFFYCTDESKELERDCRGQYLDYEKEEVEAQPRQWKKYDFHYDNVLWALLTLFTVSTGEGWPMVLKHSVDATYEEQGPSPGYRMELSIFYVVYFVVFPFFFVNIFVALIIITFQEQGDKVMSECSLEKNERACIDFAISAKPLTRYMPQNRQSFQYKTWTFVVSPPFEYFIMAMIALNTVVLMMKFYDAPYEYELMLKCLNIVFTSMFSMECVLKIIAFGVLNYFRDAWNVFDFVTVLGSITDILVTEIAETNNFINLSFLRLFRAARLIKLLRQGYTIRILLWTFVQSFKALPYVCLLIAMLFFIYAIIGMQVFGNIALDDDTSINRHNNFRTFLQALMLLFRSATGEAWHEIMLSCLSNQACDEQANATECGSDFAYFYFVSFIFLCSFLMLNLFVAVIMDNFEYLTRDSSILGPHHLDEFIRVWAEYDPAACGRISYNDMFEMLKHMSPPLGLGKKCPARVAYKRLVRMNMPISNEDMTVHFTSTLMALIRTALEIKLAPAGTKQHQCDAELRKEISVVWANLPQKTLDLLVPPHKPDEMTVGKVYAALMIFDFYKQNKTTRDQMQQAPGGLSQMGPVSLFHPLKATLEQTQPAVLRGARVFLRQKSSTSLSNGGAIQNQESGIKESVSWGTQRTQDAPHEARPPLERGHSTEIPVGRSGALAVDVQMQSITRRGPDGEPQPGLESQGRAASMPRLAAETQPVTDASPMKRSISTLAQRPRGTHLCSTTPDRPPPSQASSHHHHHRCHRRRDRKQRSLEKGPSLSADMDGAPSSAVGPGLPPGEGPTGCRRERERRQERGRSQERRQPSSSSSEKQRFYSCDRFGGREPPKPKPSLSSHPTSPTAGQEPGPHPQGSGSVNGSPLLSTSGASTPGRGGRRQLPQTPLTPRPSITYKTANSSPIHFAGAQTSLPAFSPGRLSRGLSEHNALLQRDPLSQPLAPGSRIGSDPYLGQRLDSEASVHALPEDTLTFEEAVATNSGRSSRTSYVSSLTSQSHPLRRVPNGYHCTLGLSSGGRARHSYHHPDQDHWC
human Cav2.2, sequence (P54289 25-956 partner limits assumed): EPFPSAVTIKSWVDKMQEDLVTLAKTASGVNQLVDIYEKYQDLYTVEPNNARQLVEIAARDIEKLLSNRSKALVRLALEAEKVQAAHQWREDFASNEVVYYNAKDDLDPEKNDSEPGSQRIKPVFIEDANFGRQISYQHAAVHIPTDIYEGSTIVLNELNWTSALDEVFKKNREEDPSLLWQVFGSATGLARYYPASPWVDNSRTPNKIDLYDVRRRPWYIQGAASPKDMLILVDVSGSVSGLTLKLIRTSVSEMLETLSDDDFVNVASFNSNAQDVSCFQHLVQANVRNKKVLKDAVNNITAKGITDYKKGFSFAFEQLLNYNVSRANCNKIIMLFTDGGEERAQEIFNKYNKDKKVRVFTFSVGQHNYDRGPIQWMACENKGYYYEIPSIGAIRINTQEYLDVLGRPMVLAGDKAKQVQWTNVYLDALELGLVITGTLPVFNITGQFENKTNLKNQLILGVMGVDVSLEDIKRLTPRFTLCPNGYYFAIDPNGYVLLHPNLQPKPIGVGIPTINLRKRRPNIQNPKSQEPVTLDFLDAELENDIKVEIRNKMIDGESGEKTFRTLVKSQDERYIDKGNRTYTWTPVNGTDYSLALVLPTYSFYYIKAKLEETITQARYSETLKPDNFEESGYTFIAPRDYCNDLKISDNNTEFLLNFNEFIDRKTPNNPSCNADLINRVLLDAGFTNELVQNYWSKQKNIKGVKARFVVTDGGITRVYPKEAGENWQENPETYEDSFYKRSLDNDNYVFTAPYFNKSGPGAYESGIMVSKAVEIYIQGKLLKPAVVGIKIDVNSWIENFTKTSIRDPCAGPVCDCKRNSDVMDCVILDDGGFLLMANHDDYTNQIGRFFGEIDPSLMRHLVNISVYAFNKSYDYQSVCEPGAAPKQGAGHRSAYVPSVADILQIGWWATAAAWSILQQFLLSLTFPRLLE
human Cav2.2, sequence (P54289 957-1103 partner limits assumed): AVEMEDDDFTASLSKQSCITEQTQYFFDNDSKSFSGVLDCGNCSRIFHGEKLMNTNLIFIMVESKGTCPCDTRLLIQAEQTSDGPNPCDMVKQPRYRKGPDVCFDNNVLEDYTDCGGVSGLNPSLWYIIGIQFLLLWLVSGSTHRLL
human Cav2.2, sequence (P54284 whole entry partner): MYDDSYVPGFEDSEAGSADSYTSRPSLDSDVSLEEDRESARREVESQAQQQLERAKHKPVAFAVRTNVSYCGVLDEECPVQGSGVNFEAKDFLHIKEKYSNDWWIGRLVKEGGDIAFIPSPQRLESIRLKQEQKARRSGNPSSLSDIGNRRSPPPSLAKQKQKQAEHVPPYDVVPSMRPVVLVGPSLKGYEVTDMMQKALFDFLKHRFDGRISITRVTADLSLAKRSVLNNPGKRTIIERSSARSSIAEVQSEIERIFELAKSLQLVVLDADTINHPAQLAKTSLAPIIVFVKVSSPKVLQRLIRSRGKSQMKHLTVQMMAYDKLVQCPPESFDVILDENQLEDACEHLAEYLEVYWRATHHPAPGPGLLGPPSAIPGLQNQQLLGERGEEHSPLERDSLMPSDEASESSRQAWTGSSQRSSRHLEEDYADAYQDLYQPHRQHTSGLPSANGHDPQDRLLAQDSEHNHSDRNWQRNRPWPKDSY

| SMILES | IC50 | IC50 [1] |
| --- | --- | --- |
| NCC(=O)N[C@H]1CC[C@@H]2CN(c3ccc(C(F)(F)F)cc3)C[C@@H]21 [Example 751, N-{(3aR,4S,6aS)-2-[4-(trifluoromethyl)phenyl]octahydrocyclopenta[c]pyrrol-4-yl}glycinamide] | > 3 µM | – |
| FC(F)(F)c1cccc(N2C[C@H]3CC[C@H](NCc4cn[nH]c4)[C@H]3C2)n1 [Example 696, (3aR,4S,6aS)-N-(1H-pyrazol-4-ylmethyl)-2-[6-(trifluoromethyl)pyridin-2-yl]octahydrocyclopenta[c]pyrrol-4-amine] | 3.52 µM | – |
| CN[C@@H](CC(C)C)C(=O)N[C@H]1CC[C@@H]2CN(Cc3ccc(F)cc3)C[C@@H]21 [Example 381, N^1-[(3aR,4S,6aS)-2-(4-fluorobenzyl)octahydrocyclopenta[c]pyrrol-4-yl]-N^2-methyl-L-leucinamide] | > 30 µM | – |
| O=C(N[C@H]1CC[C@@H]2CN(c3ccc(C(F)(F)F)cn3)C[C@@H]21)c1cc2ccccc2[nH]1 [Example 568, N-{(3aR,4S,6aS)-2-[5-(trifluoromethyl)pyridin-2-yl]octahydrocyclopenta[c]pyrrol-4-yl}-1H-indole-2-carboxamide] | 2.1 µM | – |
| O=S(=O)(Cc1ccc(Cl)cc1)N[C@H]1CC[C@@H]2CN(c3cccc(C(F)(F)F)n3)C[C@@H]21 [Example 717, 1-(4-chlorophenyl)-N-{(3aR,4S,6aS)-2-[6-(trifluoromethyl)pyridin-2-yl]octahydrocyclopenta[c]pyrrol-4-yl}methanesulfonamide] | 3.54 µM | – |
| O=C(N[C@H]1CC[C@H]2CN(CCCc3ccc(C(F)(F)F)cc3)C[C@H]21)C(C1CCCCC1)C1CCCCC1 [Example 70, 2,2-dicyclohexyl-N-((3aS,4S,6aR)-2-{3-[4-(trifluoromethyl)phenyl]propyl}octahydrocyclopenta[c]pyrrol-4-yl)acetamide] | – | 1.93 µM |
| CN[C@@H](CC(C)C)C(=O)N[C@H]1CC[C@@H]2CN(c3cnccc3C(F)(F)F)C[C@@H]21 [Example 765, N^2-methyl-N-{(3aR,4S,6aS)-2-[4-(trifluoromethyl)pyridin-3-yl]octahydrocyclopenta[c]pyrrol-4-yl}-L-leucinamide] | 2.59 µM | – |
| CC(C)N[C@H]1CC[C@@H]2CN(S(=O)(=O)c3ccc(C(F)(F)F)cc3Cl)C[C@@H]21 [Example 284, (3aR,4S,6aS)-2-{[2-chloro-4-(trifluoromethyl)phenyl]sulfonyl}-N-isopropyloctahydrocyclopenta[c]pyrrol-4-amine] | – | 3.7 µM |
| O=S(=O)(N[C@H]1CC[C@@H]2CN(c3cccc(C(F)(F)F)n3)C[C@@H]21)c1ccccc1 [Example 708, N-{(3aR,4S,6aS)-2-[6-(trifluoromethyl)pyridin-2-yl]octahydrocyclopenta[c]pyrrol-4-yl}benzenesulfonamide] | 3.35 µM | – |
| CN[C@H](C(=O)N[C@@H]1CC[C@H]2CN(Cc3ccccc3)C[C@H]21)C(C)C [Example 351, N^1-[(3aS,4R,6aR)-2-benzyloctahydrocyclopenta[c]pyrrol-4-yl]-N^2-methyl-L-valinamide] | > 30 µM | – |
| CCC[C@H](NC)C(=O)N[C@H]1CC[C@@H]2CN(S(=O)(=O)c3ccc(C(C)(C)C)cc3)C[C@@H]21 [Example 543, N^1-{(3aR,4S,6aS)-2-[(4-tert-butylphenyl)sulfonyl]octahydrocyclopenta[c]pyrrol-4-yl}-N^2-methyl-L-norvalinamide] | – | 3.2 µM |
| O=C(CCCC(c1ccc(F)cc1)c1ccc(F)cc1)N[C@H]1CC[C@H]2CN(Cc3cccc(C(F)(F)F)c3)C[C@H]21 (relative stereo) [Example 132, 5,5-bis(4-fluorophenyl)-N-{(3aS*,4S*,6aR*)-2-[3-(trifluoromethyl)benzyl]octahydrocyclopenta[c]pyrrol-4-yl}pentanamide] | – | 1.13 µM |
| CN[C@@H](CC(C)C)C(=O)N[C@@H]1CC[C@H]2CN(Cc3cccc(C(F)(F)F)c3)C[C@H]21 [Example 166, N^2-methyl-N^1-{(3aS,4R,6aR)-2-[3-(trifluoromethyl)benzyl]octahydrocyclopenta[c]pyrrol-4-yl}-L-leucinamide] | – | 2.72 µM |
| CC[C@H](C(=O)N[C@H]1CC[C@H]2CN([C@@H](C)c3ccccc3)C[C@H]21)c1ccccc1 [Example 212, (2S)-2-phenyl-N-{(3aS,4S,6aR)-2-[(1S)-1-phenylethyl]octahydrocyclopenta[c]pyrrol-4-yl}butanamide] | – | 4.13 µM |
| O=C(N[C@H]1CC[C@H]2CN(Cc3cccc(C(F)(F)F)c3)C[C@H]21)C(c1ccccc1)c1ccccc1 (relative stereo) [Example 135, 2,2-diphenyl-N-{(3aS*,4S*,6aR*)-2-[3-(trifluoromethyl)benzyl]octahydrocyclopenta[c]pyrrol-4-yl}acetamide] | 0.67 µM | – |
| O=C(N[C@H]1CC[C@H]2CN(Cc3ccccc3C(F)(F)F)C[C@H]21)C(C1CCCCC1)C1CCCCC1 [Example 60, 2,2-dicyclohexyl-N-{(3aS,4S,6aR)-2-[2-(trifluoromethyl)benzyl]octahydrocyclopenta[c]pyrrol-4-yl}acetamide] | 2.43 µM | – |

| SMILES | IC50 | IC50 [1] |
| --- | --- | --- |
| Cc1ccc(CN2C[C@@H]3CC[C@H](NC(=O)C(C4CCCCC4)C4CCCCC4)[C@@H]3C2)cc1 [Example 62, 2,2-dicyclohexyl-N-[(3aS,4S,6aR)-2-(4-methylbenzyl)octahydrocyclopenta[c]pyrrol-4-yl]acetamide] | – | 1.64 µM |
| O=S(=O)(N[C@H]1CC[C@@H]2CN(c3cccc(C(F)(F)F)n3)C[C@@H]21)c1ccc(F)cc1 [Example 705, 4-fluoro-N-{(3aR,4S,6aS)-2-[6-(trifluoromethyl)pyridin-2-yl]octahydrocyclopenta[c]pyrrol-4-yl}benzenesulfonamide] | 3.82 µM | – |
| O=C(N[C@H]1CC[C@@H]2CN(c3ccc(F)cc3)C[C@@H]21)[C@@H]1C[C@@H](F)CN1 [Example 641, (4R)-4-fluoro-N-[(3aR,4S,6aS)-2-(4-fluorophenyl)octahydrocyclopenta[c]pyrrol-4-yl]-L-prolinamide] | 26.2 µM | – |
| CC[C@H](C(=O)N[C@H]1CC[C@@H]2CN(Cc3ccccc3)C[C@@H]21)c1ccccc1 [Example 33, (2S)-N-[(3aR,4S,6aS)-2-benzyloctahydrocyclopenta[c]pyrrol-4-yl]-2-phenylbutanamide] | – | 7.41 µM |
| CC(C)C(C(=O)N[C@H]1CC[C@@H]2CN(Cc3cccc(C(F)(F)F)c3)C[C@@H]21)c1ccccc1 (stereo partly drawn) [Example 88, 3-methyl-2-phenyl-N-{(3aR,4S,6aS)-2-[3-(trifluoromethyl)benzyl]octahydrocyclopenta[c]pyrrol-4-yl}butanamide] | – | 1.18 µM |
| CN[C@@H](CC1CC1)C(=O)N[C@H]1CC[C@@H]2CN(c3ccc(OC(F)(F)F)cc3)C[C@@H]21 [Example 775, 3-cyclopropyl-N^2-methyl-N-{(3aR,4S,6aS)-2-[4-(trifluoromethoxy)phenyl]octahydrocyclopenta[c]pyrrol-4-yl}-L-alaninamide] | 2.77 µM | – |
| Cc1ccc(N2C[C@H]3CC[C@H](NC(=O)[C@@H]4C[C@@H](F)CN4)[C@H]3C2)cc1 [Example 652, (4R)-4-fluoro-N-[(3aR,4S,6aS)-2-(4-methylphenyl)octahydrocyclopenta[c]pyrrol-4-yl]-L-prolinamide] | 21.2 µM | – |
| CCC[C@H](NC1CCCC1)C(=O)N[C@H]1CC[C@@H]2CN(S(=O)(=O)c3ccc(C(F)(F)F)cc3)C[C@@H]21 [Example 506, N^2-cyclopentyl-N^1-((3aR,4S,6aS)-2-{[4-(trifluoromethyl)phenyl]sulfonyl}octahydrocyclopenta[c]pyrrol-4-yl)-L-norvalinamide] | – | 1.71 µM |
| CC(C)C[C@@H](C(=O)N[C@@H]1CC[C@H]2CN(Cc3cccc(C(F)(F)F)c3)C[C@H]21)N(C)S(C)(=O)=O [Example 169, N^2-methyl-N^2-(methylsulfonyl)-N^1-{(3aS,4R,6aR)-2-[3-(trifluoromethyl)benzyl]octahydrocyclopenta[c]pyrrol-4-yl}-L-leucinamide] | – | 0.92 µM |
| CC[C@H](C(=O)N[C@H]1CC[C@@H]2CN([C@@H](C)c3ccccc3)C[C@@H]21)c1ccccc1 [Example 211, (2S)-2-phenyl-N-{(3aR,4S,6aS)-2-[(1S)-1-phenylethyl]octahydrocyclopenta[c]pyrrol-4-yl}butanamide] | – | 3.82 µM |
| O=C(N[C@H]1CC[C@@H]2CN(c3ccccc3C(F)(F)F)C[C@@H]21)[C@@H]1C[C@@H](F)CN1 [Example 622, (4R)-4-fluoro-N-{(3aR,4S,6aS)-2-[2-(trifluoromethyl)phenyl]octahydrocyclopenta[c]pyrrol-4-yl}-L-prolinamide] | 1.69 µM | – |
| CC(C)(C)C(C(=O)N[C@H]1CC[C@H]2CN(Cc3cccc(C(F)(F)F)c3)C[C@H]21)c1ccccc1 (relative stereo) [Example 123, 3,3-dimethyl-2-phenyl-N-{(3aS*,4S*,6aR*)-2-[3-(trifluoromethyl)benzyl]octahydrocyclopenta[c]pyrrol-4-yl}butanamide] | 0.57 µM | – |
| Fc1ccc(-c2n[nH]cc2CN[C@H]2CC[C@@H]3CN(c4cccc(C(F)(F)F)n4)C[C@@H]32)cc1 [Example 672, (3aR,4S,6aS)-N-{[3-(4-fluorophenyl)-1H-pyrazol-4-yl]methyl}-2-[6-(trifluoromethyl)pyridin-2-yl]octahydrocyclopenta[c]pyrrol-4-amine] | 1.65 µM | – |
| CN[C@@H](CC(C)C)C(=O)N[C@H]1CC[C@@H]2CN(c3ncc(C(F)(F)F)cc3Br)C[C@@H]21 [Example 766, N-{(3aR,4S,6aS)-2-[3-bromo-5-(trifluoromethyl)pyridin-2-yl]octahydrocyclopenta[c]pyrrol-4-yl}-N^2-methyl-L-leucinamide] | 0.63 µM | – |
| CN[C@@H](CC(C)C)C(=O)N[C@@H]1CC[C@H]2CN(S(=O)(=O)c3cccc(C(F)(F)F)c3)C[C@H]21 [Example 182, N^2-methyl-N^1-((3aS,4R,6aR)-2-{[3-(trifluoromethyl)phenyl]sulfonyl}octahydrocyclopenta[c]pyrrol-4-yl)-L-leucinamide] | 1.45 µM | – |
